The source of these data is a melting point compilation (Tetko et al.; mined from patent text by program, amines drawn as free bases though some values may be those of a salt).

Bounds are passed on as bounds.

On to `CC(=NNc1ccccc1[N+](=O)[O-])c1ccccn1`, for which the melting point (usually the temperature of the solid-liquid transition) lay within 145 to 146 °C.

Compound `CCC1(CCCN2CCc3sccc3C2)C(=O)Nc2ccc(Cl)cc21` (stereo not drawn) displayed a melting point of 66 to 69 °C.

The compound `COc1cc(Cn2cnc3cccnc32)ccc1C(=O)N(C(C)C)C1CCCCC1` registered a melting point of 96 to 98 °C.

On to `CC1(C)C=Cc2cc(C(=O)NCCN3C(=O)c4ccccc4C3=O)ccc2O1`, for which the melting point fell in the range of 183 to 185 °C.

In turn, `Cc1ccc(C(=O)SCC2C(=O)OCC2c2ccc(Cl)cc2)cc1` (stereo not drawn) yielded a melting point of 99 to 100 °C.

Turning to `CCCCOCc1cc2ccccc2oc1=O`, the melting point is 69 to 70 °C.

`O=C(CCCCN1CCCCC1)c1ccc2oc3ccc(C(=O)CCCCN4CCCCC4)cc3c(=O)c2c1`: the melting point fell in the range of 109 to 110 °C.

Consider `CC(=O)C1=Cc2cc(Cl)cc(C)c2OC1`, for which the melting point fell in the range of 78 to 79 °C.

With `COC(=O)NCCOC(=O)C(C)Oc1ccc(OCc2ccccc2)cc1` (stereo not drawn), the melting point was in the range of 79 to 81 °C.

With `COc1cccc(OC)c1Cc1c(Cl)ncnc1Cl`, the melting point was 152 to 153 °C.

`CC(C)C(=O)OC1C(n2ccc(N)nc2=O)OC(COC(=O)c2ccc(Cl)cc2)C1(C#C[Si](C)(C)C)OC(=O)C(C)C` (stereo not drawn) registered a melting point of 97 to 99 °C.

`O=C1CCc2ccc(OCCCCOc3ccc4c(c3)NC(=O)CC4)cc2N1`: the melting point is 218 °C.

`Nc1ccc(OC(F)(F)F)c(C(=O)O)c1`: the melting point is 196 to 197 °C.

The compound `c1ccc2c(c1)c1ccccc1n2C1CCCCO1` (stereo not drawn) registered a melting point of 131 to 133 °C.

As for `CCOC(=O)C(=C1CCCN1C)c1ccc([N+](=O)[O-])cc1`, the melting point is 82 to 83 °C.

Take `COCc1cccc(-c2coc3ccc(-c4nnc(C)o4)cc23)c1`: the melting point fell in the range of 111 to 112 °C.

`CC1(C)Cc2cc([N+](=O)[O-])cc(O)c2O1`: the melting point was in the range of 96 to 97 °C.

On to `Cn1ncc2[nH]c3c(F)cccc3c(=O)c21`, for which the melting point was > 300 °C.

On to `OC1CN(C(=S)Nc2ccccc2)Cc2sccc21` (stereo not drawn), for which the melting point worked out at 168 °C.

As for `COc1ccc(C(C)(C)CC(O)(C(=O)O)C(F)(F)F)cc1Br` (stereo not drawn), the melting point lay within 94 to 96 °C.

For `CCOC(=O)c1cnc(-c2ccccc2OC(C)C)[nH]c1=O`, the melting point was in the range of 123 to 124 °C.

For the compound `Cc1nc(-c2cc(C)c(OCCCc3cc(C4CC4)no3)c(C)c2)no1`, the melting point fell in the range of 50.5 to 51 °C.

On to `COc1ccc(C=CCN2CCc3nc(N)sc3CC2)cc1`, for which the melting point lay in the range of 155 to 160 °C.

`CN(O)C(=O)NCCc1ccc2c(c1)OCCO2`: the melting point was 94 to 95 °C.

On to `COC(=O)C1C(=O)CCC1CC#N` (stereo not drawn), for which the melting point is 49 to 50 °C.

The compound `CC(=O)c1cc(S(=O)(=O)c2cccc(F)c2)ccc1O` had a melting point of 164 to 165 °C.

Regarding `CCOCc1nc2c(N)nc3ccccc3c2n1CC1CC(c2ccccc2)=NO1` (stereo not drawn), the melting point was in the range of 235 to 237 °C.

Turning to `C=CCOc1nc2cc(OC)c(OC)cc2c2ncnn12`, the melting point is 189 to 191 °C.

With `COC(=O)C(=O)c1ccc(OCCSc2ccc3ccccc3c2)cc1`, the melting point was in the range of 63 to 65 °C.

As for `O=C(O)CCCc1cc2nc(Cl)ccc2n1S(=O)(=O)c1ccc2oncc2c1`, the melting point amounted to 226 °C.

`Cc1ccc(C)c(OCCC(Cl)C(C)(C)C(=O)O)c1` (stereo not drawn): the melting point lay in the range of 117 to 118 °C.

In turn, `Cc1ccccc1-c1c(C(=O)NCc2cc(C(F)(F)F)cc(C(F)(F)F)c2)n(C)c(=O)c2ccccc12` had a melting point of 168 to 170 °C.

`COC(=O)C(CC(=O)N1CCOCC1)Oc1ccccc1` (stereo not drawn) gave a melting point of 83 to 84 °C.

The compound `COc1cc(OC)c2c(=O)[nH]c(-c3ccc(OCCN4CCCC4)c(-c4ccc(S(C)=O)cc4)n3)nc2c1` (stereo not drawn) had a melting point of 103 to 105 °C.

Turning to `COC1=NS(=O)(=O)N(Cc2ccccc2)C(=O)N1`, the melting point was in the range of 141 to 144 °C.

Turning to `CN(Cc1ccc2c(Br)c(O)ccc2c1)C(=O)c1cn(C)c2ccccc12`, the melting point fell in the range of 189 to 190 °C.

As for `CC(C)(CO)NS(=O)(=O)c1cccc(NC(=O)c2cnn3c(C(F)(F)F)cc(-c4ccc(Cl)c(Cl)c4)nc23)c1`, the melting point was found to be 269 °C.

In turn, `Cc1cc(-c2ccc(Cl)c(Cl)c2)nc(-c2cccc(-c3ccc(S(N)(=O)=O)s3)c2)n1` registered a melting point of 238 °C.

As for `CCOc1cc(C(=O)O)on1`, the melting point was 210 to 213 °C.

As for `c1ccc(N2CCN(CCc3ccc4ccccc4n3)CC2)cc1`, the melting point was found to be 79 °C.

In the case of `COc1ccc(Cn2c(-c3cc(OC)c(OC)c(OC)c3)nc3ccccc32)cc1`, the melting point came out at 110 °C.

Compound `COc1cc(CCNC(=O)[C@@H](NC(=O)OC(C)(C)C)C(C)C)ccc1OCc1ccccc1` returned a melting point of 115 to 118 °C.

For `COc1ccc(C(=O)Nc2nc3ccc(N)cc3c(NCc3ccccc3)c2C#N)cc1`, the melting point is 228 to 230 °C.

As to `Clc1cccc(Nc2ccccc2)c1`, the melting point was 128 to 138 °C.

`COc1ccc(-c2csc(N(C)c3cc4ccccc4cn3)n2)cc1OC` had a melting point of 165 to 166 °C.

The compound `COc1ccc([N+](=O)[O-])c(CCc2cc(OC)ccc2[N+](=O)[O-])c1` had a melting point of 193 to 195 °C.

Compound `CSC(Nc1ccc2c(c1)OCO2)=C(C#N)C(=O)C(C)(C)C` gave a melting point of 139 to 141 °C.

With `Cc1nc2nc(S(=O)(=O)Cl)nn2c(C)c1Cl`, the melting point lay in the range of 131 to 133 °C.

With `CC(C)COc1ccc(N)cc1C#N`, the melting point lay within 88 to 93 °C.

For the compound `O=C1c2cccc(O)c2C(=O)c2sc(-c3ccccc3)nc21`, the melting point is 264 °C.

On to `Cc1cccc2[nH]c(=S)nc(N)c12`, for which the melting point was > 250 °C.

On to `CC(=Nc1c(C)cccc1C)C(C)=Nc1c(C)cccc1C`, for which the melting point fell in the range of 78 to 86 °C.

Turning to `CC(=O)N1CCC(=O)NCc2cc([N+](=O)[O-])ccc21`, the melting point fell in the range of 253 to 256 °C.

Compound `COc1cc(OC)nc(NC(=O)NS(=O)(=O)Nn2cccc2C(=O)C(F)(F)F)n1` showed a melting point of 145 to 147 °C.

In the case of `O=C(Nc1cccnc1)N1CCc2ccc(Cl)c(Cl)c21`, the melting point lay within 178 to 180 °C.

As to `O=C1CC(c2ccc3oc4c(c3c2)CCCC4)CC(=O)O1`, the melting point fell in the range of 164 to 166 °C.

Take `CCCCNC(=O)Oc1ccc(N=C=S)cc1`: the melting point was in the range of 99 to 102 °C.

`CN(C)C(=O)OC1c2nccnc2C(=O)N1c1ccc2ccc(Cl)nc2n1` (stereo not drawn) registered a melting point of 270 °C.

`C=C(C)C(=O)OCc1ccc(SC)cc1` gave a melting point of 41 °C.

The compound `CN(C)S(=O)(=O)c1nnc(N)s1` yielded a melting point of 188 to 190 °C.

`CCCC(N)CCCCCCC(=O)O` (stereo not drawn) showed a melting point of 107 to 108 °C.

In turn, `COc1cc(Cc2cnc(N)nc2N)cc(OC)c1` gave a melting point of 164 to 168 °C.

As for `O=C(NCc1ccccc1)c1cc2c(=O)n(Cc3ccccc3)c(=O)[nH]c2s1`, the melting point is > 255 °C.

Regarding `O=C1c2ccccc2-c2oc(=O)c3ccccc3c21`, the melting point was in the range of 254 to 256 °C.

Consider `Cc1ccc(/C=C/C2=CCN(Cc3nc4ccccc4[nH]3)CC2)o1`, for which the melting point was 191 to 193 °C.

`Cc1cccc(Nc2cc(Cl)nc(Cl)n2)c1C`: the melting point lay within 204 to 206 °C.

The compound `CCN1CCCC1CNC(=O)c1c(O)ccc(Br)c1O` (stereo not drawn) returned a melting point of 166 to 168 °C.

`Cc1cc([N+](=O)[O-])c(NC(C)C)c([N+](=O)[O-])c1C(C)C` registered a melting point of 54 to 55 °C.

As to `Nc1nc(C(=O)NCCO)cs1`, the melting point lay in the range of 118 to 120 °C.

Take `N#CCC(=O)Cc1cccc(C(F)(F)F)c1`: the melting point fell in the range of 82 to 83 °C.

In turn, `CCCc1cc([N+](=O)[O-])cc(C=O)c1O` yielded a melting point of 69.5 to 70 °C.

`C=C(C)CN(c1ncnc2c1ncn2C1OC(CO)C(O)C1O)C1CCCCC1` (stereo not drawn) showed a melting point of 110 to 112 °C.

As for `Cc1ccc(NC(=O)NCc2ccc3c(c2)CN(C2CCC(=O)N(COC(=O)C4CCN(C(=O)OC(C)(C)C)CC4)C2=O)C3=O)cc1Cl` (stereo not drawn), the melting point was in the range of 157 to 159 °C.

`CCC(C)(C)C(=O)Oc1cccc2ccc(OCCOc3ccc(C(=O)C(=O)O)cc3)cc12` registered a melting point of 167 to 168 °C.

With `COc1ccccc1N1CCN(C(=O)NCCN(C)C)CC1`, the melting point fell in the range of 98 to 100 °C.

Turning to `CN1Cc2c(C(N)=S)ncn2-c2cccc(Cl)c2C1=O`, the melting point was 300 to 302 °C.

Turning to `CSc1ncccc1NC(=O)CCCCCSc1nc2ccccc2o1`, the melting point is 127 to 128 °C.

For `O=C(CC1c2cc(Cl)ccc2S(=O)(=O)N1c1ccccc1)NO` (stereo not drawn), the melting point is 192 to 194 °C.

The compound `CCc1n[nH]c(CC)c1CCOCCOc1ccc(OC)cc1Cl` returned a melting point of 90 to 92 °C.

Compound `CCN(CC)c1ccnc2sc(C(N)=O)c(N)c12` yielded a melting point of 127 to 129 °C.

Consider `CC(=O)Nc1ccc(Sc2c([N+](=O)[O-])cc(C(=O)O)cc2S(N)(=O)=O)cc1`, for which the melting point was 168 °C.

`CCCCC1CCCCCc2c1oc(=O)c(C(c1ccccc1)C1CC1)c2O` (stereo not drawn) yielded a melting point of 78 to 82 °C.

For `Cc1cccn2c3c(nc12)-c1ccccc1C(=O)C3=O`, the melting point is > 260 °C.

Regarding `N#Cc1c(N2CCN(C(=O)c3cccs3)CC2)c2ccccc2[nH]c1=O`, the melting point turned out to be 264 °C.

On to `N#CCC(=O)c1ccc(Br)cc1`, for which the melting point came out at 164 °C.

`O=C1CCC(N2C(=O)c3cccc(OCc4ccc(CN5CCC(c6ccc(Cl)cc6)CC5)cc4)c3C2=O)C(=O)N1` (stereo not drawn) returned a melting point of 236 to 238 °C.

`N#Cc1nn(-c2c(Cl)cc(C(F)(F)F)cc2Cl)c(N)c1-c1ccc(F)cc1`: the melting point is 222 to 223 °C.

On to `O=C(O)c1cc(Cl)c(OCc2ccc(Cl)cc2)c(Cl)c1`, for which the melting point was 215 to 220 °C.

Regarding `CN(CCCc1cccc(Oc2ccc(C(F)(F)F)cc2)c1)N=O`, the melting point lay in the range of 75 to 76 °C.

The compound `Cc1cc(NC(=O)c2cnccn2)nc(C)c1Br` showed a melting point of 206 °C.

Compound `CCCCOc1ccc(S(=O)(=O)C2(C(=O)O)CCN(CCCC)CC2)cc1` returned a melting point of 182 °C.

`CC(C)(C)OC(=O)C(C#N)C(=O)c1cc(F)c(F)c(F)c1F` (stereo not drawn) displayed a melting point of 90 to 92 °C.

In turn, `CC(=O)c1ccc(Oc2ccc(F)cc2F)c(NS(C)(=O)=O)c1` had a melting point of 142 to 143 °C.
